Type in all cases: cell-based
One test has as its target T1, human S1PR5 (Homo sapiens, UniProt Q9H228).
T1 construct: host or cells: CHO-K1
The test can be described thus: Intracellular Ca2+ release (FLIPR) agonist potency, S1P5. To be noted: recombinant CHO-K1 cells expressing human S1PR5, aequorin, Gq/i5; Calcium 5 FLIPR; read-out: S1P5 EC50 range. The essentials: (§1)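 EC50 values reflect nonlinear fits of FLIPR fluorescence data, normalized to the phospho-fingolimod curve. Cells were CHO-K1 expressing the human receptor, aequorin and Gq/i5, cultured in F-12 Ham with 10% FBS.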

A further test concerns the target T2, human S1PR1 (Homo sapiens, UniProt P21453).
T2 construct: host or cells: CHO-K1
As to the kind of experiment: Intracellular Ca2+ release (FLIPR) agonist potency, S1P1. Conditions: recombinant CHO-K1 cells expressing human S1PR1, aequorin, Gq/i5; Calcium 5 FLIPR; read-out: S1P1 EC50. The procedure, abridged:
as §1

A further test concerns the target T3, human S1PR4 (Homo sapiens, UniProt O95977).
T3 construct: host or cells: CHO-K1
T3 sequence (O95977 1-384): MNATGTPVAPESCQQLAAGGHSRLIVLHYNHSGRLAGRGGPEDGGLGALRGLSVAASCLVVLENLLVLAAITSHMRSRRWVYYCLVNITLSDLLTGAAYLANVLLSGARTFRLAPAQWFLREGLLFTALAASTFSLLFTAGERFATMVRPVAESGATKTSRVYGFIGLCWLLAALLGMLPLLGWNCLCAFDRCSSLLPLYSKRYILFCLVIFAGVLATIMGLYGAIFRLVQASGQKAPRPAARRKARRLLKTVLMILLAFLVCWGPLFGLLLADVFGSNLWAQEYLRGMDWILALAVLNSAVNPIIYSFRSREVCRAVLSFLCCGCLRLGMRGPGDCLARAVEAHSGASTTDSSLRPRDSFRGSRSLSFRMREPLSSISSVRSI
As to the kind of experiment: Intracellular Ca2+ release (FLIPR) agonist potency, S1P4. Conditions: recombinant CHO-K1 cells expressing human S1PR4, aequorin, Gq/i5; Calcium 5 FLIPR; read-out: S1P4 EC50. The procedure, abridged:
as §1

Each structure is given as a SMILES string. A value given as a limit tells only on which side of the number the result lay.

T2 sequence (P21453 whole entry): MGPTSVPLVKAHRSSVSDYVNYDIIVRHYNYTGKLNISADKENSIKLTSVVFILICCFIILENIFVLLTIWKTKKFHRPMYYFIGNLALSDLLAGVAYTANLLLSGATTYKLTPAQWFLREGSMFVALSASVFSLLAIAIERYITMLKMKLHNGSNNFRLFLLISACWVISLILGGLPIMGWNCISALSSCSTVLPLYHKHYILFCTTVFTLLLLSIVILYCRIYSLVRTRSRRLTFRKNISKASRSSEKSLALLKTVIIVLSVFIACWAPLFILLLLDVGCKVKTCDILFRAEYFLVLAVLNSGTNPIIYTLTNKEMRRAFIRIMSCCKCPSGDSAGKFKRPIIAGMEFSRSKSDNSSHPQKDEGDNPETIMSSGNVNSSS
T1 sequence (Q9H228 whole entry): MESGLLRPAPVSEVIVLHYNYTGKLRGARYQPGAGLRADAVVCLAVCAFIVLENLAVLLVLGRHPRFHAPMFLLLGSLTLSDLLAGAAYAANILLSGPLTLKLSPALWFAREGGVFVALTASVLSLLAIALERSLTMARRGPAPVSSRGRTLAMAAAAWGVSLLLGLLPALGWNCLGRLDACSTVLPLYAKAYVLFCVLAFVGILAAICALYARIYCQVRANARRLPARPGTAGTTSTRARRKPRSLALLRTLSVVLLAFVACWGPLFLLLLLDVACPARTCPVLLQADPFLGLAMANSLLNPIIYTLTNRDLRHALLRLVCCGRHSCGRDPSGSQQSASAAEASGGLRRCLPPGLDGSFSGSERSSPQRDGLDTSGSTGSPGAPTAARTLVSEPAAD

Turning to `CCc1cccc(F)c1COc1ccc2c(c1)OC[C@@H](N1CC(C)(C(=O)O)C1)C2` [Compound 139, (S)-1-(7-((2-ethyl-6-fluorobenzyl)oxy)chroman-3-yl)-3-methylazetidine-3-carboxylic acid], the EC50 at human S1PR5 is below 0.01 µM; on human S1PR1, above 1 µM; on human S1PR4, below 1 µM.

On to `CCC1(C(=O)O)CN([C@@H]2COc3cc(OCc4c(Cl)cccc4Cl)ccc3C2)C1` [Compound 140, (S)-1-(7-((2,6-dichlorobenzyl)oxy)chroman-3-yl)-3-ethylazetidine-3-carboxylic acid], for which the 50% effective concentration (EC50) at human S1PR5 was 1 to 10 µM; on human S1PR1, above 1 µM; on human S1PR4, above 1 µM.

For `CCCC1(C(=O)O)CN([C@@H]2COc3cc(OCc4c(Cl)cccc4Cl)ccc3C2)C1` [Compound 141, (S)-1-(7-((2,6-dichlorobenzyl)oxy)chroman-3-yl)-3-propylazetidine-3-carboxylic acid], the EC50 was 1 to 10 µM on human S1PR5, above 1 µM at human S1PR1 and above 1 µM at human S1PR4.

In the case of `CCc1cccc(Cl)c1COc1ccc2c(c1)CCC(OCC(=O)O)C2` (stereo not drawn) [Compound 142], the EC50 at human S1PR5 is below 0.01 µM; at human S1PR1, above 1 µM; at human S1PR4, above 1 µM.

Take `O=C(O)COC1CCc2cc(OCc3c(Cl)cccc3C3CC3)ccc2C1` (stereo not drawn) [Compound 143, 2-((6-((2-chloro-6-cyclopropylbenzyl)oxy)-1,2,3,4-tetrahydronaphthalen-2-yl)oxy)acetic acid]: the EC50 at human S1PR5 is below 0.01 µM; on human S1PR1, above 1 µM; on human S1PR4 it was above 1 µM.

With `CCCc1ccc(COc2ccc3c(c2)OCC(N2CC(C(=O)O)C2)C3)c(OC)c1` (stereo not drawn) [Compound 148, 1-(7-((2-methoxy-4-propylbenzyl)oxy)chroman-3-yl)azetidine-3-carboxylic acid], the EC50 at human S1PR5 was 1 to 10 µM; at human S1PR1, above 1 µM; at human S1PR4, above 1 µM.

In the case of `Cc1ccc(F)c(COc2ccc3c(c2)CCC(OCC(=O)O)C3)c1F` (stereo not drawn) [Compound 149, 2-[6-[(2,6-difluoro-3-methyl-phenyl)methoxy]tetralin-2-yl]oxyacetic acid], the values for the EC50 at human S1PR5, on human S1PR1 and at human S1PR4 were 1 to 10 µM, above 1 µM and above 1 µM, respectively.

`Cc1ccc(Cl)c(COc2ccc3c(c2)CCC(OCC(=O)O)C3)c1F` (stereo not drawn) [Compound 150, 2-[6-[(6-chloro-2-fluoro-3-methyl-phenyl)methoxy]tetralin-2-yl]oxyacetic acid]: the EC50 at human S1PR5 was 1 to 10 µM; on human S1PR1 it was above 1 µM; at human S1PR4 it was above 1 µM.

Take `O=C(O)COC1CCc2cc(OCc3cc(C(F)(F)F)ccc3Cl)ccc2C1` (stereo not drawn) [Compound 151, 2-[6-[[2-chloro-5-(trifluoromethyl)phenyl]methoxy]tetralin-2-yl]oxyacetic acid]: the EC50 is 1 to 10 µM at human S1PR5, above 1 µM at human S1PR1 and above 1 µM on human S1PR4.

On to `COc1cccc(COc2ccc3c(c2)CCC(OCC(=O)O)C3)c1` (stereo not drawn) [Compound 154, 2-[6-[(3-methoxyphenyl)methoxy]tetralin-2-yl]oxyacetic acid], for which the EC50 is 1 to 10 µM at human S1PR5, above 1 µM at human S1PR1 and above 1 µM at human S1PR4.

As for `Cc1ccc(F)cc1COc1ccc2c(c1)CCC(OCC(=O)O)C2` (stereo not drawn) [Compound 155, 2-[6-[(5-fluoro-2-methyl-phenyl)methoxy]tetralin-2-yl]oxyacetic acid], the values for the EC50 at human S1PR5, at human S1PR1 and on human S1PR4 were 1 to 10 µM, above 1 µM and above 1 µM, respectively.

As for `Cc1cc(C)cc(COc2ccc3c(c2)CCC(OCC(=O)O)C3)c1` (stereo not drawn) [Compound 156, 2-[6-[(3,5-dimethylphenyl)methoxy]tetralin-2-yl]oxyacetic acid], the EC50 was 1 to 10 µM at human S1PR5, above 1 µM on human S1PR1 and above 1 µM on human S1PR4.

For the molecule `COc1cccc(F)c1COc1ccc2c(c1)CCC(OCC(=O)O)C2` (stereo not drawn) [Compound 157, 2-[6-[(2-fluoro-6-methoxy-phenyl)methoxy]tetralin-2-yl]oxyacetic acid], the half-maximal effective concentration (EC50) at human S1PR5 is 1 to 10 µM; on human S1PR1 it was above 1 µM; on human S1PR4 it was above 1 µM.

With `O=C(O)COC1CCc2cc(OCc3c(F)cccc3C(F)(F)F)ccc2C1` (stereo not drawn) [Compound 158, 2-[6-[[2-fluoro-6-(trifluoromethyl)phenyl]methoxy]tetralin-2-yl]oxyacetic acid], the results for the EC50 on human S1PR5, at human S1PR1 and on human S1PR4 were 1 to 10 µM, above 1 µM and above 1 µM, respectively.

Regarding `O=C(O)COC1CCc2cc(OCc3c(F)cccc3F)ccc2C1` (stereo not drawn) [Compound 159, 2-[6-[(2,6-difluorophenyl)methoxy]tetralin-2-yl]oxyacetic acid], the EC50 at human S1PR5 was 1 to 10 µM; on human S1PR1, above 1 µM; at human S1PR4, above 1 µM.

For `Cc1ccc(F)c(COc2ccc3c(c2)CCC(OCC(=O)O)C3)c1` (stereo not drawn) [Compound 160, 2-[6-[(2-fluoro-5-methyl-phenyl)methoxy]tetralin-2-yl]oxyacetic acid], the results for the EC50 at human S1PR5, at human S1PR1 and on human S1PR4 were 0.1 to 1 µM, above 1 µM and above 1 µM, respectively.

For the molecule `O=C(O)COC1CCc2cc(OCc3ccc(Cl)cc3Cl)ccc2C1` (stereo not drawn) [Compound 162, 2-[6-[(2,4-dichlorophenyl)methoxy]tetralin-2-yl]oxyacetic acid], the EC50 at human S1PR5 is 1 to 10 µM; on human S1PR1 it was above 1 µM; at human S1PR4, above 1 µM.

On to `O=C(O)COC1CCc2cc(OCc3cc(F)ccc3F)ccc2C1` (stereo not drawn) [Compound 163, 2-[6-[(2,5-difluorophenyl)methoxy]tetralin-2-yl]oxyacetic acid], for which the EC50 at human S1PR5 is 0.1 to 1 µM; at human S1PR1, above 1 µM; on human S1PR4, above 1 µM.

In the case of `O=C(O)COC1CCc2cc(OCc3cc(Cl)ccc3Cl)ccc2C1` (stereo not drawn) [Compound 164, 2-[6-[(2,5-dichlorophenyl)methoxy]tetralin-2-yl]oxyacetic acid], the EC50 on human S1PR5 was 1 to 10 µM; at human S1PR1 it was above 1 µM; at human S1PR4, above 1 µM.

As for `COc1ccc(COc2ccc3c(c2)CCC(OCC(=O)O)C3)cc1` (stereo not drawn) [Compound 165, 2-[6-[(4-methoxyphenyl)methoxy]tetralin-2-yl]oxyacetic acid], the concentration for a half-maximal effect (EC50) was 1 to 10 µM on human S1PR5, above 1 µM at human S1PR1 and above 1 µM on human S1PR4.

Regarding `COc1ccc(F)cc1COc1ccc2c(c1)CCC(OCC(=O)O)C2` (stereo not drawn) [Compound 166, 2-[6-[(5-fluoro-2-methoxy-phenyl)methoxy]tetralin-2-yl]oxyacetic acid], the EC50 was 0.1 to 1 µM at human S1PR5, above 1 µM at human S1PR1 and above 1 µM at human S1PR4.

On to `O=C(O)COC1CCc2cc(OCc3c(F)cccc3Cl)ccc2C1` (stereo not drawn) [Compound 169, 2-[6-[(2-chloro-6-fluoro-phenyl)methoxy]tetralin-2-yl]oxyacetic acid], for which the EC50 at human S1PR5 is 0.1 to 1 µM; on human S1PR1, above 1 µM; on human S1PR4 it was above 1 µM.

In the case of `COc1ccccc1COc1ccc2c(c1)CCC(OCC(=O)O)C2` (stereo not drawn) [Compound 170, 2-[6-[(2-methoxyphenyl)methoxy]tetralin-2-yl]oxyacetic acid], the 50% effective concentration (EC50) is 1 to 10 µM on human S1PR5, above 1 µM on human S1PR1 and above 1 µM at human S1PR4.

Consider `O=C(O)COC1CCc2cc(OCc3cc(F)ccc3Cl)ccc2C1` (stereo not drawn) [Compound 171, 2-[6-[(2-chloro-5-fluoro-phenyl)methoxy]tetralin-2-yl]oxyacetic acid], for which the EC50 is 1 to 10 µM on human S1PR5, above 1 µM at human S1PR1 and above 1 µM on human S1PR4.

With `O=C(O)COC1CCc2cc(OCc3cc(C(F)(F)F)ccc3F)ccc2C1` (stereo not drawn) [Compound 172, 2-[6-[[2-fluoro-5-(trifluoromethyl)phenyl]methoxy]tetralin-2-yl]oxyacetic acid], the EC50 was 1 to 10 µM at human S1PR5, above 1 µM on human S1PR1 and above 1 µM on human S1PR4.

For the molecule `O=C(O)COC1CCc2cc(OCc3cc(Cl)ccc3F)ccc2C1` (stereo not drawn) [Compound 174, 2-[6-[(5-chloro-2-fluoro-phenyl)methoxy]tetralin-2-yl]oxyacetic acid], the EC50 on human S1PR5 was 1 to 10 µM; on human S1PR1, above 1 µM; at human S1PR4 it was above 1 µM.

For the molecule `COc1ccc(Cl)cc1COc1ccc2c(c1)CCC(OCC(=O)O)C2` (stereo not drawn) [Compound 176, 2-[6-[(5-chloro-2-methoxy-phenyl)methoxy]tetralin-2-yl]oxyacetic acid], the EC50 on human S1PR5 was 1 to 10 µM; at human S1PR1, above 1 µM; at human S1PR4, above 1 µM.

Turning to `Cc1ccccc1COc1ccc2c(c1)CCC(OCCC(=O)O)C2` (stereo not drawn) [Compound 179, 3-[6-(o-tolylmethoxy)tetralin-2-yl]oxypropanoic acid], the EC50 on human S1PR5 was 1 to 10 µM; at human S1PR1, above 1 µM; on human S1PR4 it was above 1 µM.

Regarding `O=C(O)CCOC1CCc2cc(OCc3cccc(F)c3)ccc2C1` (stereo not drawn) [Compound 180, 3-[6-[(3-fluorophenyl)methoxy]tetralin-2-yl]oxypropanoic acid], the results for the EC50 at human S1PR5, on human S1PR1 and at human S1PR4 were 1 to 10 µM, above 1 µM and above 1 µM, respectively.

For `O=C(O)CCOC1CCc2cc(OCc3ccc(Cl)c(Cl)c3)ccc2C1` (stereo not drawn) [Compound 181, 3-[6-[(3,4-dichlorophenyl)methoxy]tetralin-2-yl]oxypropanoic acid], the EC50 was 1 to 10 µM on human S1PR5, above 1 µM on human S1PR1 and above 1 µM on human S1PR4.

For orientation: EC50 means the concentration that produces a half-maximal response.
